ChEMBL document CHEMBL5241127, “Design, synthesis and biological evaluation of novel 9-N-substituted-13-alkylberberine derivatives from Chinese medicine as anti-hepatocellular carcinoma agents” (Bioorg Med Chem, 2023)
Active and inactive are the calls of the source. No cut-off for these calls is given here.

Legend:
HepG2 [1] = test: Antiproliferative activity against human HepG2 cells assessed as inhibition of cell growth incubated for 72 hrs by MTT assay; assay type: functional, cell-based; conditions: HepG2, 72 h
HepG2 [2] = test: Induction of apoptosis in human HepG2 cells assessed as increase in cleaved caspase 3 expression incubated for 72 hrs by Western blot analysis; assay type: functional, cell-based; conditions: dose 0.15-0.6 µM
[3] = Toxicity in ICR mouse xenografted with […] H22 cells assessed as abnormalities in kidney at 20 mg/kg, iv administered for 21 days; assay type: organism-based; conditions: in vivo, 504 h, time 21 day
HepG2 [4] = test: Induction of apoptosis in human HepG2 cells assessed as increase in total apoptotic cells at 0.15 to 0.6 uM incubated for 72 hrs by AnnexinV-FITC/propidium iodide staining based flow cytometry (reference value: 4.1%); assay type: functional; conditions: dose 0.15-0.6 µM
H22 [5] = test: Antitumor activity against […] xenografted in ICR mouse assessed as reduction in tumor weight administered intravenously for 21 days; assay type: functional, cell-based; conditions: dose 10-20 mg/kg, route iv, time 21.0 day
H22 [6] = test: Antitumor activity against […] xenografted in ICR mouse assessed as inhibition of tumor growth at 10 mg/kg, iv administered for 21 days and measured every 2 days relative to control; assay type: functional; conditions: H22, 504 h, time 21 day, read-out: TGI
[7] = MRT (0 to t) in Sprague-Dawley rat at 1 mg/kg, iv measured for 24 hrs by LC-MS/MS analysis; assay type: ADME, organism-based; conditions: in vivo
Quadruplex DNA [8] = test: Stabilization of c-MYC G4-quadruplex DNA in human HepG2 cells assessed as colocalization with BG4 in G4-forming region at 0.3 uM incubated for 72 hrs by confocal laser scanning microscope based analysis; assay type: cell-based
[9] = Drug concentration in Sprague-Dawley rat plasma at 1 mg/kg, iv measured after 5 mins by LC-MS/MS analysis; assay type: ADME, organism-based
[10] = Clearance in Sprague-Dawley rat at 1 mg/kg, iv measured for 24 hrs by LC-MS/MS analysis; assay type: ADME, organism-based; conditions: in vivo
[11] = Antiproliferative activity against human LX2 cells assessed as inhibition of cell growth incubated for 72 hrs by MTT assay; assay type: functional, cell-based; conditions: LX-2, 72 h
HepG2 [12] = test: Induction of apoptosis in human HepG2 cells assessed as increase in cytochrome C protein expression incubated for 72 hrs by Western blot analysis; assay type: functional, cell-based; conditions: dose 0.15-0.6 µM
Huh-7 = test: Antiproliferative activity against human Huh-7 cells assessed as inhibition of cell growth incubated for 72 hrs by MTT assay; assay type: functional, cell-based; conditions: Huh-7, 72 h
[13] = Toxicity in ICR mouse xenografted with […] H22 cells assessed as abnormalities in lung at 20 mg/kg, iv administered for 21 days; assay type: organism-based; conditions: in vivo, 504 h, time 21 day
HepG2 [14] = test: Effect on AKT total protein level in human HepG2 cells at 0 to 0.6 uM incubated for 72 hrs by Western blot analysis; assay type: functional, cell-based; conditions: dose 0-0.6 µM
HepG2 [15] = test: Downregulation of p-AKT protein expression in human HepG2 cells incubated for 72 hrs by Western blot analysis; assay type: functional, cell-based; conditions: dose 0-0.6 µM
HepG2 [16] = test: Induction of mitochondrial dysfunction in human HepG2 cells assessed as increase in cells with collapsed mitochondrial membrane potential at 0.15 to 0.6 uM incubated for 72 hrs by JC-1 staining based flow cytometry analysis (reference value: 4.84%); assay type: functional; conditions: dose 0.15-0.6 µM
[17] = Half life in Sprague-Dawley rat at 1 mg/kg, iv measured for 24 hrs by LC-MS/MS analysis; assay type: ADME, organism-based; conditions: in vivo
SK-HEP1 = test: Antiproliferative activity against human SK-HEP1 cells assessed as inhibition of cell growth incubated for 72 hrs by MTT assay; assay type: functional, cell-based; conditions: SK-HEP1, 72 h
HepG2 [18] = test: Induction of apoptosis in human HepG2 cells assessed as reduction in Bcl-2 protein expression at […] incubated for 72 hrs by Western blot analysis; assay type: functional, cell-based; conditions: dose lower 0.15 µM
Quadruplex DNA [19] = test: Stabilization of c-MYC G4-quadruplex DNA in human HepG2 cells assessed as downregulation of c-myc expression incubated for 72 hrs by Western blot analysis; assay type: cell-based; conditions: dose 0.15-0.6 µM
HepG2 [20] = test: Potency index, ratio of cisplatin IC50 to test compound IC50 for antiproliferative activity against cisplatin-resistant human HepG2 cells assessed as inhibition of cell growth incubated for 72 hrs by MTT assay; assay type: functional
[21] = Toxicity in ICR mouse xenografted with […] H22 cells assessed as abnormalities in heart at 20 mg/kg, iv administered for 21 days; assay type: organism-based; conditions: in vivo, 504 h, time 21 day
DNA = test: Binding affinity to duplex DNA (unknown origin) using fluorescent tagged F10T model assessed as stabilization by measuring change in melting temperature at 2 uM by fluorescence based analysis; assay type: nucleic-acid assay
[22] = Toxicity in ICR mouse xenografted with […] H22 cells assessed as abnormalities in liver at 20 mg/kg, iv administered for 21 days; assay type: organism-based; conditions: in vivo, 504 h, time 21 day
Hep 3B2 = test: Antiproliferative activity against human Hep3B cells assessed as inhibition of cell growth incubated for 72 hrs by MTT assay; assay type: functional, cell-based
HepG2 [23] = test: Induction of G2/M phase cell cycle arrest in human HepG2 cells assessed as downregulation of cyclinB1 protein expression incubated for 72 hrs by Western blot analysis; assay type: functional, cell-based; conditions: dose 0.15-0.6 µM
HepG2 [24] = test: Antiproliferative activity against cisplatin-resistant human HepG2 cells assessed as inhibition of cell growth incubated for 72 hrs by MTT assay; assay type: functional, cell-based; conditions: HepG2, 72 h
HepG2 [25] = test: Induction of ROS production in human HepG2 cells assessed as increase in ROS positive cells at 0 to 0.60 uM incubated for 72 hrs by DCF-DA staining based flow cytometry analysis (reference value: 4.21%); assay type: functional; conditions: dose 0-0.6 µM
HepG2 [26] = test: Induction of apoptosis in human HepG2 cells assessed as increase in Bax protein expression incubated for 72 hrs by Western blot analysis; assay type: functional, cell-based; conditions: dose 0.15-0.6 µM
[27] = Initial plasma concentration in Sprague-Dawley rat at 1 mg/kg, iv by LC-MS/MS analysis; assay type: ADME, organism-based
HepG2 [28] = test: Downregulation of p-PI3K protein expression in human HepG2 cells incubated for 72 hrs by Western blot analysis; assay type: functional, cell-based; conditions: dose 0-0.6 µM
H22 [29] = test: Antitumor activity against […] xenografted in ICR mouse assessed as inhibition of tumor growth at 20 mg/kg, iv administered for 21 days and measured every 2 days relative to control; assay type: functional; conditions: H22, 504 h, time 21 day, read-out: TGI
H22 [30] = test: Antitumor activity against […] xenografted in ICR mouse assessed as reduction in tumor volume administered intravenously for 21 days and measured every 2 days; assay type: functional, cell-based; conditions: dose 10-20 mg/kg, route iv, time 21.0 day
[31] = Toxicity in ICR mouse xenografted with […] H22 cells assessed as abnormalities in spleen at 20 mg/kg, iv administered for 21 days; assay type: organism-based; conditions: in vivo, 504 h, time 21 day
[32] = Toxicity in ICR mouse xenografted with […] H22 cells assessed as reduction in body weight at 10 to 20 mg/kg, iv administered for 21 days and measured every 2 days; assay type: organism-based; conditions: in vivo, 504 h, dose 10-20 mg/kg, time 21 day
Quadruplex DNA [33] = test: Binding affinity to c-MYC G4-quadruplex DNA (unknown origin) using fluorescent tagged FPu18T model assessed as stabilization by measuring change in melting temperature at 2 uM by fluorescence based analysis; assay type: nucleic-acid assay
Quadruplex DNA [34] = test: Stabilization of c-MYC G4-quadruplex DNA in human HepG2 cells assessed as BG4 foci formation at 0.3 uM incubated for 72 hrs by confocal laser scanning microscope based analysis; assay type: cell-based
HepG2 [35] = test: Induction of cell cycle arrest in human HepG2 cells assessed as accumulation of cells at G2 phase at 0.15 to 0.6 uM incubated for 72 hrs by RNaseA/PI staining based flow cytometry analysis (reference value: 12.99%); assay type: functional; conditions: dose 0.15-0.6 µM
[36] = AUC (0 to t) in Sprague-Dawley rat at 1 mg/kg, iv measured for 24 hrs by LC-MS/MS analysis; assay type: ADME, organism-based; design: dose 1 mg/kg, time 24 hrs, route iv; conditions: in vivo
HepG2 [37] = test: Potency index, ratio of cisplatin IC50 to test compound IC50 for antiproliferative activity against human HepG2 cells assessed as inhibition of cell growth incubated for 72 hrs by MTT assay; assay type: functional
HepG2 [38] = test: Induction of ROS production in human HepG2 cells assessed as increase in ROS positive cells at 0.06 uM preincubated with ROS scavenger, NAC followed by compound addition and further incubated for 72 hrs by DCF-DA staining based flow cytometry analysis (reference value: 4.21%); assay type: functional
HepG2 [39] = test: Effect on PI3K total protein level in human HepG2 cells at 0 to 0.6 uM incubated for 72 hrs by Western blot analysis; assay type: functional, cell-based; conditions: dose 0-0.6 µM
Quadruplex DNA [40] = test: Binding affinity to c-MYC G4-quadruplex DNA (unknown origin) using fluorescent tagged FPu18T model assessed as stabilization by measuring change in melting temperature at 2 uM incubated in presence of non-fluorescent ds26 DNA by fluorescence based analysis; assay type: nucleic-acid assay
HepG2 [41] = test: Induction of cell cycle arrest in human HepG2 cells assessed as accumulation of cells at S phase at 0.15 to 0.6 uM incubated for 72 hrs by RNaseA/PI staining based flow cytometry analysis (reference value: 35.98%); assay type: functional; conditions: dose 0.15-0.6 µM
HepG2 [42] = test: Induction of G2/M phase cell cycle arrest in human HepG2 cells assessed as downregulation of cdc2 protein expression incubated for 72 hrs by Western blot analysis; assay type: functional, cell-based; conditions: dose 0.15-0.6 µM
HepG2 [43] = test: Induction of G2/M phase cell cycle arrest in human HepG2 cells assessed as upregulation of p-cdc25c protein expression incubated for 72 hrs by Western blot analysis; assay type: functional, cell-based; conditions: dose 0.15-0.6 µM

## CCCCCCCCCCCCc1c2[n+](cc3c(NCCN(C)C)c(OC)ccc13)CCc1cc3c(cc1-2)OCO3
HepG2 [1]
  IC50: 1.24 µM

## CCCCCCCCc1c2[n+](cc3c(NCCN(C)C)c(OC)ccc13)CCc1cc3c(cc1-2)OCO3.[Cl-]
HepG2 [2]
  Activity: Dose-Dependent Effect
[3]
  Activity: Non-Toxic
HepG2 [4]
  Activity: 51.25%
H22 [5]
  Activity: Dose-Dependent Effect
H22 [6]
  inhibition in vivo at 10 mg/kg: 51.8%
[7]
  MRT last at 24 h: 1.81 h
Quadruplex DNA [8]
  Activity: Active
[9]
  concentration at 5 min: 758 ng/mL
[10]
  clearance: 21.7 mL/min/kg
[11]
  IC50: 8.62 µM
HepG2 [12]
  Activity: Dose-Dependent Effect
Huh-7
  IC50: 0.58 µM
[13]
  Activity: Non-Toxic
HepG2 [14]
  Activity: inactive
HepG2 [15]
  Activity: Dose-Dependent Effect
HepG2 [16]
  Activity: 40.73%
[17]
  half-life: 2.62 h
SK-HEP1
  IC50: 1.07 µM
HepG2 [18]
  Activity: Active
Quadruplex DNA [19]
  Activity: Dose-Dependent Effect
HepG2 [20]
  Ratio IC50: >40
[21]
  Activity: Non-Toxic
DNA
  ΔTm: 0.2 °C
[22]
  Activity: Non-Toxic
Hep 3B2
  IC50: 1.15 µM
HepG2 [23]
  Activity: Dose-Dependent Effect
HepG2 [24]
  IC50: 2.12 µM
HepG2 [25]
  Activity: 52.48%
HepG2 [26]
  Activity: Dose-Dependent Effect
HepG2 [1]
  IC50: 0.64 µM
[27]
  C0: 872 ng/mL
HepG2 [28]
  Activity: Dose-Dependent Effect
H22 [29]
  inhibition in vivo at 20 mg/kg: 62.9%
H22 [30]
  Activity: Dose-Dependent Effect
[31]
  Activity: Non-Toxic
[32]
  Activity: Non-Toxic
Quadruplex DNA [33]
  ΔTm: 21.4 °C
Quadruplex DNA [34]
  Activity: Active
HepG2 [35]
  Activity: 27.61%
[36]
  AUC(0-t) at 24 h: 674 ng·h/mL
HepG2 [37]
  Ratio IC50: >10
HepG2 [38]
  Activity: 3.67%
HepG2 [39]
  Activity: inactive
Quadruplex DNA [40]
  ΔTm: 20.9 °C
HepG2 [41]
  Activity: 21.63%
HepG2 [42]
  Activity: Dose-Dependent Effect
HepG2 [43]
  Activity: Dose-Dependent Effect

## CCCCCCCCc1c2[n+](cc3c(NCCO)c(OC)ccc13)CCc1cc3c(cc1-2)OCO3
HepG2 [1]
  IC50: 2.76 µM

## CCCCCCCCCCCCc1c2[n+](cc3c(NCCO)c(OC)ccc13)CCc1cc3c(cc1-2)OCO3
HepG2 [1]
  IC50: 2.31 µM

## CCCCCCCCCCc1c2[n+](cc3c(NCCN(C)C)c(OC)ccc13)CCc1cc3c(cc1-2)OCO3
HepG2 [1]
  IC50: 1.02 µM

## CCCCCCCCc1c2[n+](c3c4c(c(OC)ccc14)N(CCO)C=C3)CCc1cc3c(cc1-2)OCO3
HepG2 [1]
  IC50: 2.28 µM

## CCCCCCc1c2[n+](cc3c(NCCO)c(OC)ccc13)CCc1cc3c(cc1-2)OCO3
HepG2 [1]
  IC50: 4.52 µM

## O=P1(N(CCCl)CCCl)NCCCO1 (stereo not drawn) [CYCLOPHOSPHAMIDE ANHYDROUS]
H22 [29]
  inhibition in vivo at 20 mg/kg: 64.6%

## CCCCCCCCc1c2[n+](cc3c(NCCCN4CCCC4)c(OC)ccc13)CCc1cc3c(cc1-2)OCO3
DNA
  ΔTm: 1.8 °C
HepG2 [1]
  IC50: 1.37 µM
Quadruplex DNA [33]
  ΔTm: 23.1 °C
Quadruplex DNA [40]
  ΔTm: 19.3 °C
